Measured values: patent US9556179B2 (BRISTOL-MYERS SQUIBB COMPANY, priority 2012, dated 2017)

Experiments:
[1] = target: CK1ε (Homo sapiens (Human), UniProt P49674); test: CK1ε kinase assay (Caliper LABCHIP electrophoretic separation of fluoresceinated peptide substrate and product); format: biochemical; conditions: 200 pM enzyme, 50 μM ATP, 22 hours at room temperature
How it was run: (§1)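 Eleven-concentration compound series in kinase reactions run for 22 hours at room temperature. Terminated with EDTA, with product conversion read by electrophoretic separation. Non-linear regression gave IC50.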

[2] = target: CK1δ (Homo sapiens (Human), UniProt P48730); test: CK1δ kinase assay (Caliper LABCHIP electrophoretic separation of fluoresceinated peptide substrate and product); format: biochemical; conditions: 200 pM enzyme, 50 μM ATP, 22 hours at room temperature
CK1δ, sequence (P48730 whole entry): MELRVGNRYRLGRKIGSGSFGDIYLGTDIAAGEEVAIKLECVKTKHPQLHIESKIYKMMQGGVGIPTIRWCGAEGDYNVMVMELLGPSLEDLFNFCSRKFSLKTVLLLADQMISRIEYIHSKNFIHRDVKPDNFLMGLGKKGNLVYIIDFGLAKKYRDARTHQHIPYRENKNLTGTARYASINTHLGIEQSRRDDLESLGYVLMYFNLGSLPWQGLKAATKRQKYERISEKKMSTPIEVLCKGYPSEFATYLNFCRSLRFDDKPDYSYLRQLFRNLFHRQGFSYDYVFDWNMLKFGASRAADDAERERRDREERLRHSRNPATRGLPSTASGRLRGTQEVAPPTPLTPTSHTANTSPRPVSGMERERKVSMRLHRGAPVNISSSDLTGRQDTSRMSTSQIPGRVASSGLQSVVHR
How it was run: as §1

CK1ε, sequence (P49674 whole entry): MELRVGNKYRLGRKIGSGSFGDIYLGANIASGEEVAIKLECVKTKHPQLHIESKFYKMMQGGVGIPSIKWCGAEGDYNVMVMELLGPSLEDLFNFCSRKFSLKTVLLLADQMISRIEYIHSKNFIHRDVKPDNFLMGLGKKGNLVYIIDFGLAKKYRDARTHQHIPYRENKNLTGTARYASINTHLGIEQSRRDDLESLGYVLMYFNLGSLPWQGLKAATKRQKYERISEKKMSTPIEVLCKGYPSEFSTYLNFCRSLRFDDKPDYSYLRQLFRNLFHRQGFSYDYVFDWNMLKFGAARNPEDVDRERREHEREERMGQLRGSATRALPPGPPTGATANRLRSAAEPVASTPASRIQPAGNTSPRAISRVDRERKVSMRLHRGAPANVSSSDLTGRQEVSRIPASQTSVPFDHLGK

Compound | IC50 [1] [nM] | IC50 [2] [nM]
Cc1nc(-c2ccc(F)cc2)c(-c2ccc3nc(NC(=O)c4ccncc4F)cn3n2)n1C [Compound 397, 3-fluoro-N-(6-(4-(4-fluoro-phenyl)-1,2-dimethyl-1H-imidazol-5-yl)imidazo[1,2-b]pyridazin-2-yl)isonicotin-amide] | 6.65 | 2.74
COCCN1CCC(n2cnc(-c3ccc(F)cc3)c2-c2ccc3nc(NC(=O)c4ccnc(F)c4)cn3n2)CC1 [Compound 34, 2-fluoro-N-(6-(4-(4-fluorophenyl)-1-(1-(2-methoxyethyl)piperidin-4-yl)-1H-imidazol-5-yl)imidazo[1,2-b]pyridazin-2-yl)isonicotinamide] | 12.4 | 0.136
O=C(Nc1cn2nc(-c3c(-c4ccc(F)cc4)ncn3C3CC3)ccc2n1)c1ccnc(F)c1 [Compound 426, N-(6-(1-Cyclopropyl-4-(4-fluorophenyl)-1H-imidazol-5-yl)imidazo[1,2-b]pyridazin-2-yl)-2-fluoroisonicotinamide] | 10.4 | 0.9
Cc1nc(-c2ccc(F)cc2)c(-c2ccc3nc(NC(=O)c4sc(-c5cccnc5)nc4C(F)(F)F)cn3n2)n1C [Compound 404, N-(6-(4-(4-Fluorophenyl)-1,2-dimethyl-1H-imidazol-5-yl)imidazo[1,2-b]pyridazin-2-yl)-2-(pyridin-3-yl)-4-(trifluoromethyl)thiazole-5-carboxamide] | 4.21 | 1.04
CS(=O)(=O)CC(=O)N1CCC(n2cnc(-c3ccc(F)cc3)c2-c2ccc3nc(NC(=O)c4ccnc(F)c4)cn3n2)CC1 [Compound 58, 2-fluoro-N-(6-(4-(4-fluorophenyl)-1-(1-(2-(methylsulfonyl)acetyl)piperidin-4-yl)-1H-imidazol-5-yl)imidazo[1,2-b]pyridazin-2-yl)isonicotinamide] | 0.457 | 0.233
Cc1nc(-c2ccc(F)cc2)c(-c2ccc3nc(NC(=O)c4ccnc(F)c4)cn3n2)n1CCF [Compound 288, 2-Fluoro-N-(6-(1-(2-fluoroethyl)-4-(4-fluorophenyl)-2-methyl-1H-imidazol-5-yl)imidazo[1,2-b]pyridazin-2-yl)isonicotinamide] | 0.222 | 0.11
CC(C)(F)C(=O)N1CCC(n2cnc(-c3ccc(F)cc3)c2-c2ccc3nc(NC(=O)c4ccnc(F)c4)cn3n2)CC1 [Compound 64, 2-fluoro-N-(6-(1-(1-(2-fluoro-2-methylpropanoyl)piperidin-4-yl)-4-(4-fluorophenyl)-1H-imidazol-5-yl)imidazo[1,2-6]pyridazin-2-yl)isonicotinamide] | 0.798 | 0.361
Cc1nc(-c2ccc(F)cc2)c(-c2ccc3nc(NC(=O)N(C)c4ccccc4)cn3n2)n1C [Compound 407, 3-(6-(4-(4-Fluorophenyl)-1,2-dimethyl-1H-imidazol-5-yl)imidazo[1,2-b]pyridazin-2-yl)-1-methyl-1-phenylurea] | 59.8 | 34.9
Cc1nocc1C(=O)Nc1cn2nc(-c3c(-c4ccc(F)cc4)nc4ccccn34)ccc2n1 [Compound 209, N-(6-(2-(4-fluorophenyl)imidazo[1,2-a]pyridin-3-yl)imidazo[1,2-b]pyridazin-2-yl)-3-methylisoxazole-4-carboxamide] | 29.5 | 1.83
Cc1nc(-c2ccc(F)cc2)c(-c2ccc3nc(NC(=O)c4cc5ccc(F)cc5[nH]4)cn3n2)n1C [Compound 332, 6-fluoro-N-(6-(4-(4-fluoro-phenyl)-1,2-dimethyl-1H-imidazol-5-yl)imidazo[1,2-b]pyridazin-2-yl)-1H-indole-2-carboxamide] | 6.86 | 0.87
Cc1nc(-c2ccc(F)cc2)c(-c2ccc3nc(NC(=O)c4ccnc(F)c4)cn3n2)n1C [Compound 320, 2-fluoro-N-(6-(4-(4-fluoro-phenyl)-1,2-dimethyl-1H-imidazol-5-yl)imidazo[1,2-b]pyridazin-2-yl)isonicotin-amide] | 1.86 | 0.274
